The values below come from article PMC9837800 (Journal of medicinal chemistry, 2022).

Data set [1] has as its target T1, PKMYT1 (Homo sapiens, UniProt Q99640).
T1 sequence (Q99640 1-499): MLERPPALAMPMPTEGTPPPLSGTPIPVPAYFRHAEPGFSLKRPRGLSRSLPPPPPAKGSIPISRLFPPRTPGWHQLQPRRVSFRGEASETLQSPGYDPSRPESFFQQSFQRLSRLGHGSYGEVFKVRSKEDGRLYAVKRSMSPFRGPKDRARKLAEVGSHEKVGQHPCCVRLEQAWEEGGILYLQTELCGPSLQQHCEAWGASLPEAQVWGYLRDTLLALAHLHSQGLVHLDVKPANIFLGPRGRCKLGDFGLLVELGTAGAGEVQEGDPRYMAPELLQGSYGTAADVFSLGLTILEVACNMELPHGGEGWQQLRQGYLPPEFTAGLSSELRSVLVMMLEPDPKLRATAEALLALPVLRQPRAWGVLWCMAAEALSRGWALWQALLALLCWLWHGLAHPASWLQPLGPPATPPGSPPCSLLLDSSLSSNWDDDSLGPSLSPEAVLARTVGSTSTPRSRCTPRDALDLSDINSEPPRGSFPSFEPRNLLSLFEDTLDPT

Data set [2] is described as follows: in vitro. The following applies: human, Caco-2.
Data set [3] in a line: CD-1 mouse pharmacokinetic study. The following applies: female, in vivo, iv, 1 mg/kg.
Data set [4] in a line: in vivo. The following applies: male, Sprague-Dawley, rat, iv, 1 mg/kg.
Data set [5] in a line: in vivo. The following applies: male, beagle, dog, plasma, iv, 0.5 mg/kg.
Data set [6] is described as follows: in vivo. The following applies: male, cynomolgus monkey, plasma, iv, 0.5 mg/kg.
The nature of data set [7]: in vitro. The following applies: human, hepatocytes.
Data set [8] concerns OVCAR3 CCNE1 amplified xenograft. The following applies: PO twice daily (BID), OVCAR3 model ref 6; cited from earlier work.
The target of data set [9] is T1, PKMYT1. In words: Fluorescence polarization competitive displacement screen with Tracer 178. The following applies: Tracer 178 binding probe. A general note: Fluorescence polarisation rises when a labelled molecule tumbles more slowly, as on binding a larger partner.

For `Cc1ccccc1-n1c(N)c(C(N)=O)c2nc3ccccc3nc21` [Compound 2, reference compound], the “PKMYT1 inhibition in biochemical ADP release enzymatic assay (in words)” value (from here on “PKMYT1 inhibition”) in [1] was “inactive”.

For `Cc1cc(O)ccc1-n1c(N)c(C(N)=O)c2nc3ccccc3nc21` [Compound 3, 2-amino-1-(4-hydroxy-2-methyl-phenyl)pyrrolo[3,2-b]quinoxaline-3-carboxamide], the “PKMYT1 inhibition” value in data set [1] was “inactive”.

Regarding `Cc1ccc(N)cc1-n1c(N)c(C(N)=O)c2nc3ccccc3nc21` [Compound 9, 2-amino-1-(5-amino-2-methyl-phenyl)pyrrolo[3,2-b]quinoxaline-3-carboxamide], the “PKMYT1 inhibition” value in [1] was “inactive”.

Turning to `NC(=O)c1c(N)n(-c2cccc3[nH]ccc23)c2nc3ccccc3nc12` [Compound 11, 2-amino-1-(1H-indol-4-yl)pyrrolo[3,2-b]quinoxaline-3-carboxamide], the “PKMYT1 inhibition” value in data set [1] is “inactive”.

On to `NC(=O)c1c(N)n(-c2cccc3[nH]nnc23)c2nc3ccccc3nc12` [Compound 12, 2-amino-1-(1H-benzotriazol-4-yl)pyrrolo[3,2-b]quinoxaline-3-carboxamide], for which the “PKMYT1 inhibition” value in data set [1] is “inactive”.

With `NC(=O)c1c(N)n(-c2cccc3[nH]cnc23)c2nc3ccccc3nc12` [Compound 13, 2-amino-1-(1H-benzimidazol-4-yl)pyrrolo[3,2-b]quinoxaline-3-carboxamide], the “PKMYT1 inhibition” value in data set [1] is “inactive”.

On to `Cc1ccc(C(F)F)cc1-n1c(N)c(C(N)=O)c2nc3ccccc3nc21` [Compound 14, 2-amino-1-[5-(difluoromethyl)-2-methyl-phenyl]pyrrolo[3,2-b]quinoxaline-3-carboxamide], for which the “PKMYT1 inhibition” value in data set [1] was “inactive”.

Turning to `Cc1c(O)ccc(Cl)c1-n1c(N)c(C(N)=O)c2nc3ccccc3nc21` [Compound 17, 2-amino-1-(6-chloro-3-hydroxy-2-methyl-phenyl)pyrrolo[3,2-b]quinoxaline-3-carboxamide], the Papp A→B (commonly how fast a substance crosses the layer from the apical side) in [2] stood at 14.1 ×10⁻⁶ cm/s.

In the case of `NC(=O)c1c(N)n(-c2c(Cl)ccc(O)c2Cl)c2nc3ccccc3nc12` [Compound 18, 2-amino-1-(2,6-dichloro-3-hydroxy-phenyl)pyrrolo[3,2-b]quinoxaline-3-carboxamide], the Papp A→B in [2] stood at 18.8 ×10⁻⁶ cm/s.

For the compound `Cc1ccc(O)c(C)c1-n1c(N)c(C(N)=O)c2cc(Cl)cnc21` [Compound 55, (S)-2-amino-5-chloro-1-(3-hydroxy-2,6-dimethyl-phenyl)pyrrolo[2,3-b]pyridine-3-carboxamide], the clearance (commonly a measure of how efficiently the substance is removed, as volume per time) at 24 h in data set [3] was determined as 59.2 mL/min/kg; in [4], 25.6 mL/min/kg; in data set [5], 21.3 mL/min/kg; in [6], 19.4 mL/min/kg. Moreover, in [7], the intrinsic metabolic clearance (hepatocyte CLint) (in general, the capacity of the preparation to metabolise the compound, expressed as a volume cleared per time) was 4.5 µL/min/1e6 cells.

Regarding `Cc1cc2c(C(N)=O)c(N)n(-c3c(C)ccc(O)c3C)c2nc1C` [RP-6306, (S)-2-amino-1-(3-hydroxy-2,6-dimethyl-phenyl)-5,6-dimethyl-pyrrolo[2,3-b]pyridine-3-carboxamide], the clearance at 24 h came to 30.4 mL/min/kg in [3] and 13.1 mL/min/kg in [5]. Moreover, in [8], the maximum tolerated dose is 20 mg/kg.

With `Cc1nc(Nc2ncc(C(=O)Nc3c(C)cccc3Cl)s2)cc(N2CCN(CCO)CC2)n1` [dasatinib], in data set [9], the “result in focused screen of 560 known kinase inhibitors” value is “potent hits”.
